Data set [1] can be described thus: Molar enthalpy of transition or fusion. As to conditions: DSC.
For data set [2] the following is noted: DTA.

Numbers after ± are expanded uncertainties.

Turning to `CCCCCCCCCCCCCCCCCCCCCCCCCCCCCCCCCCCCCCCCCC` [dotetracontane], the “Molar enthalpy of transition or fusion” value in data set [1] (Crystal 1) came out at 166 ± 3.4 kJ/mol; in data set [1] (Crystal 2) it was 8.46 ± 0.24 kJ/mol; in data set [1] (Crystal 3), 2.11 ± 0.12 kJ/mol. The Triple point temperature in data set [2] (Crystal 1) was found to be 357.3 ± 0.1 K; in data set [2] (Crystal 2), 348.6 ± 0.1 K; in data set [2] (Crystal 3), 344.6 ± 0.1 K.

On to `CCCCCCCCCCCCCCCCCCCCCCCCCCCCCCCCCCCC` [hexatriacontane], for which the “Molar enthalpy of transition or fusion” value in data set [1] (Crystal 1) was 103 ± 2.1 kJ/mol; in data set [1] (Crystal 2) it was 28.5 ± 0.64 kJ/mol; in data set [1] (Crystal 3) it was 15 ± 0.37 kJ/mol; in data set [1] (Crystal 4), 0.467 ± 0.087 kJ/mol. Further, the Triple point temperature in data set [2] (Crystal 1) was 349.2 ± 0.1 K; in data set [2] (Crystal 2), 347.1 ± 0.1 K; in data set [2] (Crystal 3), 346.8 ± 0.1 K; in data set [2] (Crystal 4) it was 343.6 ± 0.1 K.

As for `CCCCCCCCCCCCCCCCCCCCCCCCCCCCCCCCCCCCCCCC` [tetracontane], the results for the “Molar enthalpy of transition or fusion” value in data set [1] (Crystal 1), in data set [1] (Crystal 2) and in data set [1] (Crystal 3) were 144 ± 3 kJ/mol, 8.6 ± 0.24 kJ/mol and 2.51 ± 0.13 kJ/mol, respectively. In addition, the Triple point temperature in data set [2] (Crystal 1) worked out at 354.6 ± 0.1 K; in data set [2] (Crystal 2), 347.7 ± 0.1 K; in data set [2] (Crystal 3) it was 345 ± 0.1 K.

Take `CCCCCCCCCCCCCCCCCCCCCCCCCCCCCCCCCC` [tetratriacontane]: the figures for the “Molar enthalpy of transition or fusion” value in data set [1] (Crystal 1), in data set [1] (Crystal 2) and in data set [1] (Crystal 3) were 95.6 ± 2 kJ/mol, 46.7 ± 1 kJ/mol and 0.405 ± 0.085 kJ/mol, respectively. Moreover, the Triple point temperature in data set [2] (Crystal 1) is recorded as 346.1 ± 0.1 K; in data set [2] (Crystal 2) it was 343.5 ± 0.1 K; in data set [2] (Crystal 3), 342.8 ± 0.1 K.

The values above are taken from the NIST ThermoML archive (doi:10.1016/j.tca.2006.06.022).
